We go through two molecules from US20230183678A1, “IN-CELL CONTINUOUS TARGET-GENE EVOLUTION, SCREENING AND SELECTION” (COMMISSARIAT À L'ENERGIE ATOMIQUE ET AUX ENERGIES …, priority 2020, published 2023).

In experiment [1] the target is T1, PDZ (Homo sapiens, UniProt P78352).
T1 construct: expressed in transfected cells; host or cells: E. coli BL21(DE3) Star or Acella, plasmid VN419
Particulars: cI-PDZ/rpoA-CRIPT pair; read-out: affinity; cited from earlier work.

Experiment [2] deals with T2, rpoA-stop (premature stop codon resulting in no fusion peptide) (UniProt P0A7Z4 1-248, limits assumed).
T2 construct: also called VN376
Kind of experiment: bacterial two-hybrid coupled to Bxb1 DNA invertase; sequencing of colonies showed no inversion.

T2 sequence (P0A7Z4 1-248 limits assumed): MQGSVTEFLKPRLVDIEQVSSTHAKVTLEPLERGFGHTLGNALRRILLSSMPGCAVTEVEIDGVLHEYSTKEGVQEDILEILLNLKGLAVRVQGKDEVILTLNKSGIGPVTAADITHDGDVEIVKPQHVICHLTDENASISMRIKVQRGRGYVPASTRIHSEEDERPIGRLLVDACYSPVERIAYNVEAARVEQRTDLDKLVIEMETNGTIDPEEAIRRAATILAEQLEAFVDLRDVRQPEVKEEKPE

For CRIPT [rpoA-CRIPT], in experiment [1], the Kd was 800 nM.

B1: cI-PDZ (DBD-target fusion) (other)
chain: MSTKKKPLTQEQLEDARRLKAIYEKKKNELGLSQESVADKMGMGQSGVGALFNGINALNAYNAALLAKILKVSVEEFSPSIAREIYEMYEAVSMQPSLRSEYEYPVFSHVQAGMFSPELRTFTKGDAERWVSTTKKASDSAFWLEVEGNSMTAPTGSKPSFPDGMLILVDPEQAVEPGDFCIARLGGDEFTFKKLIRDSGQVFLQPLNPQYPMIPCNESCSVVGKVIASQWPEETFGAAALGEEDIPREPRRIVIHRGSTGLGFNIVGGEDGEGIFISFILAGGPADLSGELRKGDQILSVNGVDLRNASHEQAAIALKNAGQTVTIIAQYKPEEYSRFEAK
notes: Expressed in E. coli BL21(DE3) Star or Acella cells from plasmid VN419
As to B1, in experiment [2], the binding result is “no binding”.
